According to patent publication US11135207B2, “Inhibitors of dihydroceramide desaturase for treating disease” (Centaurus Therapeutics, priority 2016, dated 2021):
pEC50, pIC50: −log10 of the molar value. Where two headings read alike, the source gives them in different places.

Legend:
Des1 = Des1 (Homo sapiens (Human), UniProt O15121); assay: Jurkat T cell measurement of conversion of dihydroceramide to ceramide; type: cell-based; conditions: Jurkat clone E6-1 cells; for inhibition at 0.5 µM: 0.5 μM compound, read-out: Des1 % Inhib (0.5 μM)
Sequence of Des1 (O15121 whole entry): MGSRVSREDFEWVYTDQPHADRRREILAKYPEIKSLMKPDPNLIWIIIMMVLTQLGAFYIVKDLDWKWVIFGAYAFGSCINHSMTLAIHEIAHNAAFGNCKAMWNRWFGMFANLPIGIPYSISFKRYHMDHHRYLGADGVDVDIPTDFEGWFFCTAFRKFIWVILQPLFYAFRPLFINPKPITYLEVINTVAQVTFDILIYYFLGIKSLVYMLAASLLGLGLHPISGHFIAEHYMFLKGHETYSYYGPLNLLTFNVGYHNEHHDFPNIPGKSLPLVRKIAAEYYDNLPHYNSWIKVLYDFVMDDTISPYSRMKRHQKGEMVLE
Method: Jurkat T Cell Measurement of Conversion of Dihydroceramide to Ceramide
Jurkat clone E6-1 cells were grown and then seeded at 10^6 cells/mL in a 96-well plate (400 μL in each well. The cells were administered 100 μL of cell culture media containing 50-μM NBD-C6-dihydroceramide (Des1 substrate), affording a final concentration of substrate of 10 μM. The cells were incubated with substrate at 4° C. for 30 minutes. Following the incubation at 4° C., the cell suspension was centrifuged at 1200 rpm for 3 minutes, and the cell pellet is resuspended in 400 μL of fresh media containing various concentrations of either fenretinide (known Des1 inhibitor control compound) or test article. The final concentrations of control compound and test compounds were tested in a range from 0-10 μM. The cells and compounds were incubated at 37° C. for 3 hours. Following the 3-hour incubation, the plate was centrifuged at 2500 g for 3 minutes at 4° C., followed by collection and transfer of 200 μL of the supernatant to a new 96-well plate with 300 μL of methanol an containing appropriate internal standards for liquid chromatography/tandem mass spectroscopy (LC/MS/MS) analysis (internal standard: 500 nM labetalol and 100 nM alprazolam). The samples were vortexed for 2 minutes followed by centrifugation at 3,220 g for 20 minutes. Following centrifugation, 200 μL of the supernatant was transferred to a new 96-well plate for LC-MS/MS analysis to determine the amount of NBD-C6-ceramide (Des1 product) produced. The assay was typically performed in duplicate. A reduction of at least 30% compared to vehicle control (0 μM test article) is indicative of an active compound, and a reduction of 75% compared to vehicle control is preferred.

[1] = tested on: insulin-stimulated Akt phosphorylation in C2C12 myotubes; assay: C2C12 myotube assay of insulin-stimulated phosphorylation of Akt; type: cell-based; conditions: Mus musculus, in the presence of palmitate, read-out: half-maximal effective concentration (EC50) for increasing insulin-stimulated Akt phosphorylation
Method: C2C12 Myotube Assay of Insulin-Stimulated Phosphorylation of Akt:
C2C12 myotubes are treated with 0.75 mM BSA-conjugated palmitate for 16 hours in the presence or absence of 7 non-zero concentrations of fenretinide (Des1 inhibitor control compound) or various test articles, followed by a 10-minute stimulation with insulin (100 nM). Cells are subsequently harvested and boiled in reducing SDS sample buffer and subjected to SDS-PAGE followed by detection of phosphorylated Akt, total Akt, and a suitable loading control (e.g. actin or GAPDH) by western blot using fluorescently-conjugated secondary antibodies. Band intensities are quantitated by an Odyssey imaging system (Li-COR), but could also be performed using HRP-conjugated secondary antibodies/enhanced chemiluminescence or by colorimetric readout.
Moreover, while currently contemplated for SDS-PAGE/immunoblot format, this assay could be adapted to ELISA or in-cell western (immunocytochemistry) formats for higher throughput testing of compounds. An increase of 30% compared to vehicle control (0 μM test article) is indicative of an active compound, and an increase of 50% compared to control is preferred. […] Des1 inhibitors disclosed herein are expected to be effective in this assay.

CFTR-KO mice = conditions: cited from earlier work
[2] = NBD-C6-dihydroceramide substrate, read-out: Des1 IC50

Row | SMILES | inhibition at 0.5 µM (Des1) [%] | pIC50 (Des1; [2]) | pEC50 [1] | pIC50 (Des1; read-out: half-maximal inhibitory concentration (IC50)) | susceptibility to infection with Pseudomonas aeruginosa (CFTR-KO mice; CFTR-KO mice) | lung AA/DHA ratio (CFTR-KO mice; lungs of CFTR-KO mice)
1 | O=C(Nc1ccc(O)cn1)C1CCCN(c2ccc(F)cc2)C1 (centres unmarked) [Example 48, 1-(4-fluorophenyl)-N-(5-hydroxypyridin-2-yl)piperidine-3-carboxamide] | 91.3 | 6.60 | – | – | – | –
2 | O=C(CC1CCN(c2ccc(F)cc2)CC1)Nc1ccc(O)cn1 [Example 49, 2-[1-(4-fluorophenyl)piperidin-4-yl]-N-(5-hydroxypyridin-2-yl)acetamide] | 96.8 | 7.89 | – | – | – | –
3 | O=C(CN1CCN(c2ccc(F)cc2)CC1)Nc1ccc(O)cn1 [Example 50, 2-[4-(4-fluorophenyl)piperazin-1-yl]-N-(5-hydroxypyridin-2-yl)acetamide] | 92.3 | 6.85 | – | – | – | –
4 | O=C(CC1CCN(c2ccc(Cl)cc2)CC1)Nc1ccc(O)cn1 [Example 51, 2-[1-(4-chlorophenyl)piperidin-4-yl]-N-(5-hydroxypyridin-2-yl)acetamide] | 97.3 | 8.30 | – | – | – | –
5 | O=C(CN1CCN(c2ccc(Cl)cc2)CC1)Nc1ccc(O)cn1 [Example 52, 2-[4-(4-chlorophenyl)piperazin-1-yl]-N-(5-hydroxypyridin-2-yl)acetamide] | 94.1 | 7.18 | – | – | – | –
6 | O=C(Nc1ccc(O)cn1)C1CCN(c2ccc(C(F)(F)F)cc2)CC1 [Example 53, N-(5-hydroxypyridin-2-yl)-1-[4-(trifluoromethyl)phenyl]piperidine-4-carboxamide] | – | 8.70 | – | – | – | –
7 | O=C(Nc1ccc(O)cn1)C1CCN(c2ccc(F)cc2)CC1 [Example 54, 1-(4-fluorophenyl)-N-(5-hydroxypyridin-2-yl)piperidine-4-carboxamide] | 96.6 | 7.96 | – | – | – | –
8 | CC1=C(/C=C/C(C)=C/C=C/C(C)=C/C(=O)Nc2ccc(O)cc2)C(C)(C)CCC1 [fenretinide] | – | – | 6.22 | 6.60 to 7.00 | reduce susceptibility to infection with Pseudomonas aeruginosa | normalize this ratio
